Reference: patent US20060088496A1, “Personal care compositions with salts of hydroxypropyl trialkylammonium substituted mono-saccharide” (Unilever Home & Personal Care USA, Division of Conopco, Inc., priority 2004, published 2006)

System: Porcine epidermis
Assay: moisturization efficacy test: weight change of porcine skin with relative humidity on an environmental microbalance
Settings: difference in percent weight change, treated minus untreated skin, 1% active material in water solution; for From 0 to 80 to 20% Relative Humidity: 90 minutes at 20% relative humidity after 80% (water retained); for From 0 through 80% Relative Humidity: 90 minutes at 80% relative humidity (water picked up)
Description: This Example provides the results of moisturization efficacy tests. These tests involved evaluation on Porcine epidermis utilized as a human skin model. Equipment and protocol are outlined below. An environmental microbalance (Model MB-300W, VTI Corp., 2708 W 84th Street, Hialeah, Fla. 33016) was programmed to measure the change in weight of porcine skin as a function of relative humidity at a constant temperature and air flow. The porcine skin was evaluated before and after treatment with aqueous solutions of humectants to determine adsorption and retention of moisture. Sample preparation was done as follows: • Epidermal sections of porcine skin were cut to approximately 4 cm×1 cm. • The skin was washed in a 10% detergent solution and dried in a dessicator to a constant weight. This represents the Untreated material. • The skin was soaked in a 1% by weight aqueous solution of the test sample for 15 minutes, excess fluid was blotted off and the skin was dried to constant weight in a dessicator. This represents the Treated material. Sequence of conditions for the microbalance was as follows: • 30 minutes at 0% relative humidity. (Insures that sample is dry.) • 90 minutes at 80% relative humidity. […] (Determines amount of water retained.) The experiments were conducted as follows: • The weight of a piece of untreated skin was recorded continuously during the sequence. • The piece of untreated skin was treated with the test sample. • The weight of the treated piece of skin was recorded continuously during the sequence. • Data reduction consisted of calculating the percent weight change from the initial weight for the untreated and treated pieces of skin. The reported data was the difference between each treated piece and its corresponding untreated piece.

Compound | From 0 to 80 to 20% Relative Humidity | From 0 through 80% Relative Humidity
C[N+](C)(C)CC(O)CCl.[Cl-] (stereo not shown) [Quat ® 188, 3-chloro-2-hydroxypropyl trimethylammonium chloride] | 0.10 | 0.21
OCC(O)CO [Glycerin] | 0.10 | 0.21
